Source: patent publication US4909257A, “Method for attaining in vivo tissue-specific contrast by nuclear magnetic resonance imaging” (priority 1989, dated 1990)

How the values were obtained:
[1] = tested on: normal BALB/C mice; experiment: Toxicity (acute lethality) after i.v. tail vein injection in mice; type: in vivo; conditions: 0.2 mL, five BALB/C mice per dose group, 7 days
Protocol: Solutions were prepared to evaluate the toxicity of the chelators and ferric complexes of the chelators.
A 1.2 M stock ferric solution was prepared by dissolving 32 g of FeCl3 * 6 H2 O in 100 mL of 0.1 N HCl. It was standardized by EDTA titration using Variamine Blue B indicator.
A solution or suspension of 10 mmoles of each ligand in 20 mL of water was 70-80% neutralized by reaction with NaOH. The resulting solution (pH~9) was added dropwise to a solution of 10.1 mmoles of FeCl3 in 10 mL of water. The reaction mixture was adjusted to pH 7.0 with solid NaHCO3 and stirred at 60°-80° C. for two hours. It then was ccentrifuged, and the supernatant was filtered through a 0.22 micron filter. […] Th filtrate was concentrated on a rotary evaporator, the pH adjusted to 7.0, and the volume adjusted to 20 mL.
Tiron was obtained as the sodium salt. An aqueous 0.5 M solution was treated with a 2% excess of FeCl3, and the reaction mixture was worked up as above.
A suspension of 3.6 g (10 mmoles) of EHPG in 15 mL of water was reacted with 17 mL of 2 N NaOH. The resulting dark yellow-orange solution was added dropwise to a solution of 2.7 g […] of FeCl3 * 6 H2 O in 10 mL of water. The reaction mixture was warmed to 60°-80° C. and held at that temperature for 2 hours. The thick orange-red suspension was diluted to 120 mL and heated to 90°-100° C. The hot suspension was filtered through filter aid, and the filtrate was allowed to cool to room temperature.
Rather than crystallizing the product, the pH of the reaction mixture was adjusted to 7.0 with NaHCO3 and filtered. The filtrate was used for subsequent experiments after appropriate volume adjustments and Fe determination.
For each compound at each dose, five normal BALB/C mice weighing 19-22 g were treated with test solution by injection into the tail vein. The injection volumes were approximately 0.2 mL. The behavior and condition of the mice were monitored for 1 week.

[2] = Magnetic resonance imaging contrast enhancement (2 Tesla, coronal spin echo); type: in vivo, BALB/C mice; conditions: for MRI: urinary bladder concentration: mouse, in vivo; for MRI: increase in signal intensity in the gall bladder: in contrast to Fe-EHPG and Fe-HBED
[3] = Organ distribution and clearance of 59Fe-labeled complexes; type: in vivo, BALB/C mice
Protocol: ^59 Fe was obtained as 0.06 M FeCl3 in 0.5 N HCl; the specific activity was approximately 20 mCi/mmole (1.2 mCi/mL). Labeled commplexes were preared by treating in a Teflon vial 10 uL of ^59 FeCl3 with 25 uL of 2.0×10^-2 M solution of ligand, followed by 0.25 mL of 0.36 M, pH 7.3 Na HEPES buffer and 0.74 mL of water. The reaction mixture was held at 80° C. for 2 hours and then treated with 0.2 mL of 0.12 M solution of Fe-ligand complex. The resulting solution was filtered through a 0.22 u filter. A 0.2 mL dose contained 0.004 mmole of Fe-chelate with 2 uCi of ^59 Fe. ^59 Fe acetate was prepared as above, but without addition of unlabeled carrier Fe acetate.
For each complex shown in FIG. 1, a group of five BALB/C mice were treated as above with 0.2 mmole/Kg of labeled Fe-complex containing approximately 2 uCi of ^59 Fe. The animals were counted immediately after injection and at 2 hours, 1, 2, 4, and 7 days. Whole body counts were obtained using a Nuclear Chicago Tobor chamber gamma counter. Raw counts were background-subtracted and back-decayed to t0, the time of injection. An ^59 Fe standard and background were counted at each time point.
After the appropriate time period, the animals were sacrificed and dissected. Organ weights were measured, and the organs were counted in a gamma counter. Due to its small size, the gall bladder was combined with the small intestine for weighing and counting. An ^59 Fe standard was also counted at each time point. Raw counts were background-subtracted and back-decayed to t0, the time of injection. Activity was computed as a fraction of injected dose per gram of tissue.

[4] = Dose needed for NMR contrast enhancement; type: in vivo; conditions: doses as low as

In the case of O=C([O-])C(NCCNC(C(=O)[O-])c1ccccc1[O-])c1ccccc1[O-].[Fe+3] (stereo not drawn) [Fe--EHPG], the “LD-0 (maximum dose at which no mortality was observed for seven days post injection)” value [1] is reported as 0.9 mmol/kg, the “MRI: gall bladder contrast at 50 minutes” value ([2]; 50 minutes post-contrast) is reported as “gall bladder contrast remains markedly high” and the “MRI: liver intensity at 50 minutes” value ([2]; 50 minutes post-contrast) is reported as “liver intensity has decreased”. The “MRI: gall bladder enhancement, later” value ([2]; gradual, post-contrast) was “gradually becomes brighter than the surrounding liver”, the “MRI: urinary bladder concentration” value [2] was “concentrated in the urinary bladder” and the “MRI: liver enhancement” value ([2]; post-contrast, initial) was “first concentrate in the liver”. The “MRI: gall bladder enhancement, initial” value ([2]; while agent first concentrates in the liver) was “gall bladder remains unenhanced”, the “liver level of 59Fe over time” value ([3]; 0.2 mmole/Kg labeled Fe-complex, fraction of injected dose per gram of tissue, FIGS. 2 and 3) was “initially high and then decreased” and the “large intestine levels at 6 hours” value ([3]; gut tissue and contents, final time of 6 hours) was “exceeded all of the other values”. For the same compound, the “large intestine levels, up to the 2 hour time point” value ([3]; gut tissue and contents, up to 2 hours) was “started and remained lower than the liver or small intestine values”, the “small intestine values over time” value ([3]; small intestine combined with gall bladder, out to 6 hours) was “initially low, rose to a maximum at about 1-2 hours, and then decreased out to 6 hours” and the “time of maximum small intestine value” ([3]; small intestine combined with gall bladder, printed as about) was 1 to 2 h. For the same compound, the “lowest dose achieving NMR contrast enhancement” value [4] was 1 mg contrast agent per kilogram weight of the animal.
In the case of GD-DTPA [reference compound], the “MRI: increase in signal intensity in the gall bladder” value [2] is reported as “essentially none in the gall bladder” and the “MRI: urinary bladder concentration” value [2] is reported as “concentrated in the urinary bladder”.
For O=C([O-])CN(CCO)CCN(CC(=O)[O-])CC(=O)[O-].[Fe+3] [Fe--HEDTA], the “LD-100 (minimum dose for which 100% mortality was observed for seven days post injection)” value [1] was 0.5 mmol/kg.
In the case of CC(=O)N(O)CCCCCNC(=O)CCC(=O)N(O)CCCCCNC(=O)CCC(=O)N(O)CCCCCN [DF, Desferrioxamine B], the “LD-0 (maximum dose at which no mortality was observed for seven days post injection)” value [1] is reported as 0.5 mmol/kg and the “LD-100 (minimum dose for which 100% mortality was observed for seven days post injection)” value [1] is reported as 1 mmol/kg.
In the case of O=C(O)CN(CC(=O)O)[C@@H]1CCCC[C@H]1N(CC(=O)O)CC(=O)O (relative stereo) [CDTA, trans-1,2-cyclohexanediaminotetraacetic acid], the “LD-0 (maximum dose at which no mortality was observed for seven days post injection)” value [1] is reported as 0.05 mmol/kg and the “LD-100 (minimum dose for which 100% mortality was observed for seven days post injection)” value [1] is reported as 0.5 mmol/kg.
With CC(=O)N([O-])CCCCCNC(=O)CCC(=O)N([O-])CCCCCNC(=O)CCC(=O)N([O-])CCCCCN.[Fe+3] [Fe--DF] the “LD-0 (maximum dose at which no mortality was observed for seven days post injection)” value [1] was 0.5 mmol/kg, the “LD-100 (minimum dose for which 100% mortality was observed for seven days post injection)” value [1] was 2 mmol/kg and the “MRI: increase in signal intensity in the gall bladder” value [2] was “essentially none in the gall bladder”. The “MRI: urinary bladder concentration” value [2] was “concentrated in the urinary bladder”.
